Data as given in patent US9187465B2, “Oxazole tyrosine kinase inhibitors” (Sareum Limited, priority 2007, dated 2015).

Experiments:
Format in all cases: biochemical
human FLT4 = molecular target: T1, human FLT4 (Homo sapiens, UniProt P35916); experiment: FLT4 kinase assay (DELFIA enzyme inhibition); settings: read-out: FLT4 IC50
T1 construct: a construct expressing the human FLT4 (789-1207) with an amino terminal GST tag; host or cells: Sf9 insect cells (baculovirus)
Procedure, shortened: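 Read-out is DELFIA: biotinylated MET Tyr1253-derived peptide captured on Neutravidin, phosphotyrosine detected by Eu-antibody time-resolved fluorescence. Enzyme is Sf9-expressed GST-FLT4 (789-1207), reacting 30 min at room temperature before EDTA stop. IC50 derived from plotted % inhibition.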

human FLT3 = molecular target: T2, human FLT3 (Homo sapiens, UniProt P36888); experiment: FLT3 kinase assay (DELFIA enzyme inhibition)
T2 construct: a construct expressing the human FLT3 (564-993) with an amino terminal GST tag; host or cells: Sf9 insect cells (baculovirus)
T2 sequence (P36888 564-993): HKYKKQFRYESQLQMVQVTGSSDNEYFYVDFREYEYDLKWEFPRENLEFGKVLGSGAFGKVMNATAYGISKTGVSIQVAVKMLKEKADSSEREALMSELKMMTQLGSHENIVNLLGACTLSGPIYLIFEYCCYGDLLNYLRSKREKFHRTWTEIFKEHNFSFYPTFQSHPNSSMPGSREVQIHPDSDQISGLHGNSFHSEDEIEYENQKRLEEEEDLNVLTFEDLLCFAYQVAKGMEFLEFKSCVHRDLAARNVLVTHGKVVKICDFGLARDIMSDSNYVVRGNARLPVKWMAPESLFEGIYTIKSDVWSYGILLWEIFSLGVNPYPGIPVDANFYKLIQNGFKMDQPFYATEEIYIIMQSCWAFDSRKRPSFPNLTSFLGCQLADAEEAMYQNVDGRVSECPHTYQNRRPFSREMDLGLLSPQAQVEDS
Procedure: A GST-kinase fusion protein of 70 KDa was produced using sf9 baculovirus expression system, with a construct expressing the human FLT3 (564-993) with an amino terminal GST tag. The protein was purified by one-step affinity chromatography using glutathione-agarose.
FLT3 enzyme activity is determined using a Dissociation Enhanced Lanthanide Fluorescent Immunoassay (DELFIA) with a peptide substrate derived from the Gastrin Precursor (Tyr 87) peptide […] with a core sequence: EAYGW.
The amount of phosphorylated peptide produced is detected by means of a phospho-Tyrosine specific Europium-labelled antibody using Time-Resolved Fluorescence at Excitation 360-35 nm and Emission 620-35 nm.
Assay reactions are set up in a 25 uL final volume on a 96 well plate. […] The reaction is allowed to proceed for 30 minutes at room temperature before stopping with 100 μL Stop solution comprising of 100 mM EDTA, 1×BSA blocker in TBS (Perbio) and 0.05% Surfact-Amps20 (Perbio).
The stopped reaction is transferred to a black 96-well Neutravidin-coated plate (Perbio) and incubated for 30 minutes to capture the biotinylated peptide substrate. After washing wells 3 times with 200 uL TBS/T buffer, Anti-Phospho-Tyr-100 antibody labelled with Eu—N1 (Perkin Elmer AD0159) is added to all wells for 60 minutes at room temperature. After a repeat washing step, DELFIA Enhancement solution (Perkin Elmer) is added to all wells for 5 minutes and the fluorescence measured on a plate reader Analyst HT (Molecular Devices).
The % inhibition of the activity is calculated and plotted in order to determine the concentration of test compound required to inhibit 50% of the enzyme activity (IC50).

human Aurora A = molecular target: T3, human Aurora A (Homo sapiens, UniProt O14965); experiment: Aurora A kinase assay (DELFIA enzyme inhibition); settings: read-out: Aurora A IC50
T3 construct: Histidine tag (N); host or cells: Sf9 insect cells (baculovirus)
T3 sequence (O14965 1-403): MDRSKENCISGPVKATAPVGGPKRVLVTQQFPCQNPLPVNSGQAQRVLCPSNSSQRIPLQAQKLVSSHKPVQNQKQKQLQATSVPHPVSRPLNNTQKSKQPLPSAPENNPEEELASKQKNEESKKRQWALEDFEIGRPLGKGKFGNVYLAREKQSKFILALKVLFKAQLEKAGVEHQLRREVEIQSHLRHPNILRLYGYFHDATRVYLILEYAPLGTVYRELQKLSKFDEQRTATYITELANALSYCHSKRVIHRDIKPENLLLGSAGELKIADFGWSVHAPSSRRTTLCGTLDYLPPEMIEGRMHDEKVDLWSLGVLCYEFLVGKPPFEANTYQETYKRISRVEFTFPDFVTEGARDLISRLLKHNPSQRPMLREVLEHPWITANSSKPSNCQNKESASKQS
Procedure, shortened: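 DELFIA read-out (time-resolved Eu fluorescence, 620 nm emission) after Neutravidin capture of biotinylated peptide substrate and antibody detection. Reaction: Ni-agarose-purified Aurora A, 30 min at room temperature, stopped with 100 mM EDTA.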

T1 sequence (P35916 789-1207): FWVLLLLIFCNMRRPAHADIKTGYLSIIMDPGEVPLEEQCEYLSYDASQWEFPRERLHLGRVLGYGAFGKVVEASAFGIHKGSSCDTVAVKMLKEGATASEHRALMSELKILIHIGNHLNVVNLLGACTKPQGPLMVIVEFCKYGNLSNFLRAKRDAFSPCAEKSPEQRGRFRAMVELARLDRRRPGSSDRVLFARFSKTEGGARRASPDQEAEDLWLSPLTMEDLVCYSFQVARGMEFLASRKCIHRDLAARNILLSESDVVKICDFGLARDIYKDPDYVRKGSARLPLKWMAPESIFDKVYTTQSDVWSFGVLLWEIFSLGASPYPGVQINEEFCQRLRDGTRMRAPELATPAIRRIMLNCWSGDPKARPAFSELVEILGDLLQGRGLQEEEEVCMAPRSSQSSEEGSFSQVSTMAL

SMILES	IC50 (human FLT4)	IC50 (human FLT3)	IC50 (human Aurora A)
NC(=O)c1nc(-c2c(F)cccc2Cl)oc1-c1ccc(OCCN2CCCCC2)cc1 [Example F-24, 2-(2-chloro-6-fluorophenyl)-5-(4-(2-(piperidin-1-yl)ethoxy)phenyl)oxazole-4-carboxamide]	< 10 µM	< 10 µM	< 10 µM
COc1ccc(-c2oc(-c3cccc4[nH]ccc34)nc2C(N)=O)cc1 [Example M-4, 2-(1H-indol-4-yl)-5-(4-methoxyphenyl)oxazole-4-carboxamide]	< 10 µM	< 10 µM	< 100 µM
NC(=O)c1nc(-c2c(F)cccc2F)oc1Nc1ccc(C(=O)N2CCOCC2CO)cc1 (centres unmarked) [Example U-19, 2-(2,6-difluorophenyl)-5-(4-(3-(hydroxymethyl)morpholine-4-carbonyl)phenylamino)oxazole-4-carboxamide]	< 10 µM	< 10 µM	< 10 µM
NC(=O)c1nc(Nc2cccnc2)oc1-c1ccc(N2CCNCC2)cc1 [Example R-14, 5-(4-(piperazin-1-yl)phenyl)-2-(pyridin-3-ylamino)oxazole-4-carboxamide]	< 10 µM	< 10 µM	< 10 µM
NC(=O)c1nc(-c2c(F)cccc2F)oc1Nc1ccc(C(=O)N2CCNCC2)cc1 [Example Q-22, 2-(2,6-difluorophenyl)-5-(4-(piperazine-1-carbonyl)phenylamino)oxazole-4-carboxamide]	< 10 µM	< 10 µM	< 10 µM
NC(=O)c1nc(-c2c(F)cccc2F)oc1Nc1ccc(CN2CCCCC2)cc1 [Example Q-56, 2-(2,6-difluorophenyl)-5-(4-(piperidin-1-ylmethyl)phenylamino)oxazole-4-carboxamide]	< 10 µM	< 10 µM	< 10 µM
NC(=O)c1nc(-c2c(F)cccc2F)oc1-c1ccc(OCCN2CCC[C@@H]2CO)cc1 [Example S-6, (R)-2-(2,6-difluorophenyl)-5-(4-(2-(2-(hydroxymethyl)pyrrolidin-1-yl)ethoxy)phenyl)oxazole-4-carboxamide]	< 10 µM	< 10 µM	< 10 µM
COc1ccc(-c2oc(-c3ccc(C#N)cc3)nc2C(N)=O)cc1 [Example M-9, 2-(4-cyanophenyl)-5-(4-methoxyphenyl)oxazole-4-carboxamide]	< 100 µM	< 100 µM	
NC(=O)c1nc(-c2c(F)cccc2F)oc1Nc1cccc(OCCN2CCOCC2)c1 [Example Q-10, 2-(2,6-difluorophenyl)-5-(3-(2-morpholinoethoxy)phenylamino)oxazole-4-carboxamide]	< 10 µM	< 10 µM	< 10 µM
NC(=O)c1nc(-c2c(Cl)cccc2Cl)oc1Nc1ccc(N2CCNCC2)cc1 [Example Q-35, 2-(2,6-dichlorophenyl)-5-(4-(piperazin-1-yl)phenylamino)oxazole-4-carboxamide]	< 10 µM	< 10 µM	< 10 µM
COc1cccc(Nc2nc(C(N)=O)c(-c3ccc(N4CCNCC4)cc3)o2)c1 [Example R-12, 2-(3-methoxyphenylamino)-5-(4-(piperazin-1-yl)phenyl)oxazole-4-carboxamide]	< 10 µM	< 10 µM	< 10 µM
NC(=O)c1nc(-c2c(F)cccc2F)oc1Nc1ccc(C(=O)NCCCO)cc1 [Example U-17, 5-(4-((3-hydroxypropyl)carbamoyl)phenylamino)-2-(2,6-difluorophenyl)oxazole-4-carboxamide]	< 10 µM	< 10 µM	< 10 µM
CN1CCN(CC(O)COc2ccc(-c3oc(-c4c(F)cccc4F)nc3C(N)=O)cc2)CC1 (centres unmarked) [Example T-3, 2-(2,6-difluorophenyl)-5-(4-(2-hydroxy-3-(4-methylpiperazin-1-yl)propoxy)phenyl)oxazole-4-carboxamide]	< 10 µM	< 10 µM	< 10 µM
NC(=O)c1nc(-c2cccc3[nH]ncc23)oc1Nc1ccc(N2CCN(C(=O)C(F)(F)F)CC2)cc1 [Example Q-60, 2-(1H-indazol-4-yl)-5-(4-(4-(2,2,2-trifluoroacetyl)piperazin-1-yl)phenylamino)oxazole-4-carboxamide]	< 10 µM	< 10 µM	< 10 µM
COc1ccc(-c2oc(-c3cccc(NC(C)=O)c3)nc2C(N)=O)cc1 [Example N-3, 2-(3-acetamidophenyl)-5-(4-methoxyphenyl)oxazole-4-carboxamide]	< 10 µM	< 100 µM	
CN(C)c1ccc(-c2oc(-c3c(F)cccc3F)nc2C(N)=O)cn1 [Example F-7, 2-(2,6-difluorophenyl)-5-(6-(dimethylamino)pyridin-3-yl)oxazole-4-carboxamide]	< 10 µM	< 100 µM	
COc1ccc(-c2oc(-c3cccc(C(F)(F)F)c3)nc2C(N)=O)cc1 [Example N-8, 5-(4-methoxyphenyl)-2-(3-(trifluoromethyl)phenyl)oxazole-4-carboxamide]		< 100 µM	< 100 µM
COc1ccc(Nc2oc(-c3c(F)cccc3F)nc2C(N)=O)cc1 [Example P-1, 2-(2,6-difluorophenyl)-5-(4-methoxyphenylamino)oxazole-4-carboxamide]	< 10 µM	< 10 µM	
CN1CCN(CCOc2ccc(-c3oc(-c4c(F)cccc4N4CCN(C)CC4)nc3C(N)=O)cc2)CC1 [Example S-2, 2-(2-fluoro-6-(4-methylpiperazin-1-yl)phenyl)-5-(4-(2-(4-methylpiperazin-1-yl)ethoxy)phenyl)oxazole-4-carboxamide]		< 100 µM	< 100 µM
COc1ccc(-c2oc(Nc3cccc(OC)c3)nc2C(N)=O)cc1 [Example R-3, 5-(4-methoxyphenyl)-2-(3-methoxyphenylamino)oxazole-4-carboxamide]		< 10 µM	< 100 µM
NC(=O)c1nc(-c2c(F)cccc2F)oc1-c1ccc(N2CCOCC2)nc1 [Example F-19, 2-(2,6-difluorophenyl)-5-(6-morpholinopyridin-3-yl)oxazole-4-carboxamide]	< 100 µM	< 100 µM	
NC(=O)c1nc(-c2c(F)cccc2F)oc1Nc1ccc(N2CCOCC2)cc1 [Example Q-1, 2-(2,6-difluorophenyl)-5-(4-morpholinophenylamino)oxazole-4-carboxamide]		< 10 µM	< 10 µM
NC(=O)c1nc(-c2c(F)cccc2F)oc1-c1ccccn1 [Example F-2, 2-(2,6-difluorophenyl)-5-(pyridin-2-yl)oxazole-4-carboxamide]	< 100 µM	< 100 µM	
COc1ccc(-c2oc(-c3ccc(S(C)(=O)=O)cc3)nc2C(N)=O)cc1 [Example M-11, 5-(4-methoxyphenyl)-2-(4-(methylsulfonyl)phenyl)oxazole-4-carboxamide]		< 100 µM	
COc1ccc(-c2oc(-c3ccccc3)nc2C(N)=O)cc1 [Example M-2, 5-(4-methoxyphenyl)-2-phenyloxazole-4-carboxamide]	< 10 µM	< 100 µM	
